Our source for the T/C values is PubChem BioAssay AID256 (DTP/NCI, 2004).

This test has as its system CD2F1 mice, L1210 leukemia ip, survival T/C. The test is described as follows: NCI In Vivo Anticancer Drug Screen. Data for tumor model L1210 Leukemia (intraperitoneal) in CD2F1 (CDF1) mice. Conditions: higher = longer survival. The procedure, abridged:
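Implant tumor; dose compound or vehicle; measure endpoint in both groups; report treated divided by control.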

[1] abbreviates: endpoint: mean survival time, dose: 100.0 mg/kg/injection, schedule: Q04DX002 (ip), vehicle: saline with Tween-80.
[2] abbreviates: endpoint: mean survival time, dose: 200.0 mg/kg/injection, schedule: Q04DX002 (ip), vehicle: saline with Tween-80.
[3] abbreviates: endpoint: mean survival time, dose: 400.0 mg/kg/injection, schedule: Q04DX002 (ip), vehicle: saline with Tween-80.
[4] abbreviates: endpoint: mean survival time, dose: 100.0 mg/kg/injection, schedule: Q01DX009 (ip), vehicle: saline.
The mark [5] stands for this setting: endpoint: mean survival time, dose: 200.0 mg/kg/injection, schedule: Q01DX009 (ip), vehicle: saline.
Setting [6] is: endpoint: mean survival time, dose: 100.0 mg/kg/injection, schedule: Q01DX009 (ip), vehicle: saline with Tween-80.
The mark [7] stands for this setting: endpoint: mean survival time, dose: 100.0 mg/kg/injection, schedule: Q04DX003 (ip), vehicle: saline with Tween-80.
The mark [8] stands for this setting: endpoint: mean survival time, dose: 200.0 mg/kg/injection, schedule: Q04DX003 (ip), vehicle: saline with Tween-80.
Where [9] appears, read: endpoint: mean survival time, dose: 200.0 mg/kg/injection, schedule: Q01DX009 (ip), vehicle: saline with Tween-80.
Where [10] appears, read: endpoint: mean survival time, dose: 400.0 mg/kg/injection, schedule: Q01DX009 (ip), vehicle: saline with Tween-80.

“And” between values parts separate entries of the source, which are not always exact repeats. Equal entries are not always repeated. Toxic doses and inconclusive results are not listed.

Take `C/C(C(=O)O)=C(\C)c1ccccc1`: the T/C was 92 % of control under setting [1], 103 % of control under setting [2] and 103 % of control under setting [3].

Turning to `Nc1ncnc2c1c1c(N)[nH]c(=O)nc1n2C1OC(CO)C(O)C1O` (stereo not drawn), the T/C runs as follows: (endpoint: mean survival time, dose: 12.5 mg/kg/injection, schedule: Q01DX005 (ip), vehicle: water) 106 % of control; (endpoint: mean survival time, dose: 25.0 mg/kg/injection, schedule: Q01DX005 (ip), vehicle: water) 104 % of control; (endpoint: mean survival time, dose: 50.0 mg/kg/injection, schedule: Q01DX005 (ip), vehicle: water) 97 % of control; (endpoint: mean survival time, dose: 100.0 mg/kg/injection, schedule: Q01DX005 (ip), vehicle: water) 104 % of control; (endpoint: mean survival time, dose: 200.0 mg/kg/injection, schedule: Q01DX005 (ip), vehicle: water) 121 % of control.

Turning to `O=C1/C(=C\c2ccccc2)C2OCC=C3CN4CCC56c7ccccc7N1C5C2C3CC46` (stereo not drawn), where the note is “endpoint: mean survival time, dose: 75.0 mg/kg/injection, schedule: Q01DX001 (ip), vehicle: other”, the T/C is 95 % of control.

For the molecule `Cc1ccc(S(=O)(=O)N2CCCCC2)cc1`, the T/C is, setting by setting: (endpoint: mean survival time, dose: 50.0 mg/kg/injection, schedule: Q01DX009 (ip), vehicle: saline) 91 % of control; under setting [4], 93 % of control; under setting [5], 93 % of control.

Regarding `Cc1ccc(C)c(C(=O)CCCCl)c1`, the T/C is, setting by setting: (endpoint: mean survival time, dose: 25.0 mg/kg/injection, schedule: Q01DX009 (ip), vehicle: saline with Tween-80) 105 % of control; (endpoint: mean survival time, dose: 25.0 mg/kg/injection, schedule: Q04DX003 (ip), vehicle: saline with Tween-80) 93 % of control; (endpoint: mean survival time, dose: 50.0 mg/kg/injection, schedule: Q01DX009 (ip), vehicle: saline with Tween-80) 97 % of control; (endpoint: mean survival time, dose: 50.0 mg/kg/injection, schedule: Q04DX003 (ip), vehicle: saline with Tween-80) 96 % of control; under setting [6], 100 % of control; under setting [7], 96 % of control.

In the case of `CCCCCCCC/C=C\CCCCCCCC(=O)NCCN(CC)CC`, the T/C (endpoint: mean survival time, dose: 75.0 mg/kg/injection, schedule: Q01DX001 (ip), vehicle: saline) is 101 % of control and the T/C (endpoint: mean survival time, dose: 150.0 mg/kg/injection, schedule: Q01DX001 (ip), vehicle: saline) was 101 % of control.

`Cc1cc(C)nc(NC(=S)N/N=C/c2ccc(O)cn2)n1`: the T/C under setting [1] was 87 % of control, the T/C under setting [2] is 91 % of control and the T/C under setting [3] was 91 % of control.

For `COc1ccc(NC(=O)C2C3C=CC(C3)C2C(=O)O)cc1` (stereo not drawn), the T/C by setting is: under setting [7], 98 % of control; under setting [8], 98 % of control.

Regarding `CC(=O)C(=O)Sc1ccccc1`, the T/C was 94 % of control (endpoint: mean survival time, dose: 12.5 mg/kg/injection, schedule: Q04DX002 (ip), vehicle: Klucel (hydroxypropylcellulose) (HPC)); 105 % of control (endpoint: mean survival time, dose: 25.0 mg/kg/injection, schedule: Q04DX002 (ip), vehicle: Klucel (hydroxypropylcellulose) (HPC)); 90 % of control (endpoint: mean survival time, dose: 50.0 mg/kg/injection, schedule: Q04DX002 (ip), vehicle: Klucel (hydroxypropylcellulose) (HPC)).

In the case of `CCN(CC)c1cc(C(=O)O)cc(N(CC)CC)n1`, the T/C (endpoint: median survival time, dose: 6.25 mg/kg/injection, schedule: Q01DX009 (ip), vehicle: other) was 104 % of control; the T/C (endpoint: median survival time, dose: 12.5 mg/kg/injection, schedule: Q01DX009 (ip), vehicle: other) is 107 % of control; the T/C (endpoint: median survival time, dose: 50.0 mg/kg/injection, schedule: Q01DX005 (ip), vehicle: acid diluted with saline) is 103 % of control; the T/C (endpoint: median survival time, dose: 50.0 mg/kg/injection, schedule: Q01DX009 (ip), vehicle: other) was 108 % of control; the T/C (endpoint: median survival time, dose: 100.0 mg/kg/injection, schedule: Q01DX005 (ip), vehicle: acid diluted with saline) is 94 % of control; the T/C (endpoint: median survival time, dose: 100.0 mg/kg/injection, schedule: Q01DX009 (ip), vehicle: other) was 121 % of control.

As for `CN(C)c1ccc(N=C(C#N)C(=O)c2ccccc2)cc1`, the T/C under setting [6] was 95 % of control, the T/C under setting [9] is 97 % of control and the T/C under setting [10] is 97 % of control.

With `c1ccc2c(c1)C1c3cccc[n+]3C2C2C1CC1C3c4ccccc4C(C12)[n+]1ccccc13` (stereo not drawn), the T/C (endpoint: mean survival time, dose: 12.5 mg/kg/injection, schedule: Q04DX003 (ip), vehicle: saline) was 98 % of control.

Consider `CC[C@@]1(O)C[C@H](OC2CC(N(C)C)C(OC3CC(O)C(O[C@@H]4O[C@@H](C)C(=O)C=C4N)C(C)O3)C(C)O2)c2c(cc3c(c2O)C(=O)c2c(O)ccc(O)c2C3=O)[C@H]1C(=O)OC` (stereo partly drawn), for which the T/C was 102 % of control (endpoint: mean survival time, dose: 0.02 mg/kg/injection, schedule: Q01DX009 (ip), vehicle: suspension in saline); 96 % of control (endpoint: mean survival time, dose: 0.05 mg/kg/injection, schedule: Q01DX009 (ip), vehicle: suspension in saline); 103 % of control (endpoint: mean survival time, dose: 0.1 mg/kg/injection, schedule: Q01DX009 (ip), vehicle: suspension in saline); 115 % of control (endpoint: mean survival time, dose: 0.2 mg/kg/injection, schedule: Q01DX009 (ip), vehicle: suspension in saline); 108 % of control (endpoint: mean survival time, dose: 0.4 mg/kg/injection, schedule: Q01DX009 (ip), vehicle: suspension in saline); 123 % of control (endpoint: mean survival time, dose: 0.8 mg/kg/injection, schedule: Q01DX009 (ip), vehicle: suspension in saline). Moreover, where the note is “endpoint: mean survival time, dose: 1.6 mg/kg/injection, schedule: Q01DX009 (ip), vehicle: suspension in saline”, the T/C is 111 % of control.

Turning to `CS(=O)(=O)SC(F)(F)F`, the T/C (endpoint: mean survival time, dose: 5.0 mg/kg/injection, schedule: Q01DX001 (ip), vehicle: saline) is 103 % of control.

In the case of `O=C(NNC(=O)OCC(Cl)(Cl)Cl)OCC(Cl)(Cl)Cl`, the T/C under setting [7] was 102 % of control.

With `CCOC(=O)CC(=O)N(CC)CC`, the T/C is, setting by setting: under setting [4], 98 % of control; (endpoint: mean survival time, dose: 100.0 mg/kg/injection, schedule: Q04DX003 (ip), vehicle: saline) 99 % of control; under setting [5], 93 % of control; (endpoint: mean survival time, dose: 200.0 mg/kg/injection, schedule: Q04DX003 (ip), vehicle: saline) 95 % of control; (endpoint: mean survival time, dose: 400.0 mg/kg/injection, schedule: Q01DX009 (ip), vehicle: saline) 96 % of control; (endpoint: mean survival time, dose: 400.0 mg/kg/injection, schedule: Q04DX003 (ip), vehicle: saline) 108 % of control.

In the case of `CO[C@H](C(=O)[C@@H](O)[C@@H](C)O)[C@@H]1Cc2cc3cc(OC4CC(OC5CC(O)C(O)C(C)O5)C(O)C(C)O4)c(C)c(O)c3c(O)c2C(=O)[C@H]1OC1CC(OC2CC(OC3CC(C)(O)C(O)C(C)O3)C(O)C(C)O2)C(O)C(C)O1` (stereo partly drawn), the T/C runs as follows: (endpoint: mean survival time, dose: 0.13 mg/kg/injection, schedule: Q01DX009 (ip), vehicle: saline) 95 % of control and 97 % of control and 101 % of control; (endpoint: mean survival time, dose: 0.25 mg/kg/injection, schedule: Q01DX009 (ip), vehicle: saline) 95 % of control and 97 % of control and 103 % of control; (endpoint: mean survival time, dose: 0.5 mg/kg/injection, schedule: Q01DX009 (ip), vehicle: saline) 93 % of control and 100 % of control and 105 % of control; (endpoint: mean survival time, dose: 0.5 mg/kg/injection, schedule: Q01DX Z (ip), vehicle: saline) 124 % of control; (endpoint: mean survival time, dose: 1.0 mg/kg/injection, schedule: Q01DX009 (ip), vehicle: saline) 101 % of control and 104 % of control and 107 % of control.

With `O=C(CCBr)NCc1ccccc1`, the T/C is, setting by setting: under setting [6], 97 % of control; under setting [7], 92 % of control; under setting [9], 98 % of control; under setting [8], 98 % of control; under setting [10], 97 % of control; (endpoint: mean survival time, dose: 400.0 mg/kg/injection, schedule: Q04DX003 (ip), vehicle: saline with Tween-80) 95 % of control.

As to `CC1CC(O)C(N)C(O)C1` (stereo not drawn), the T/C reads like this: (endpoint: mean survival time, dose: 100.0 mg/kg/injection, schedule: Q01DX001 (ip), vehicle: saline) 103 % of control; (endpoint: mean survival time, dose: 200.0 mg/kg/injection, schedule: Q01DX001 (ip), vehicle: saline) 98 % of control; (endpoint: mean survival time, dose: 400.0 mg/kg/injection, schedule: Q01DX001 (ip), vehicle: saline) 98 % of control.

For `CCOC(=O)Nc1cc(NC(C)/C(=N/O)c2ccccc2)c([N+](=O)[O-])c(N)n1` (stereo not drawn), the T/C runs as follows: (endpoint: median survival time, dose: 25.0 mg/kg/injection, schedule: Q01DX005 (ip), vehicle: Klucel (hydroxypropylcellulose) (HPC)) 119 % of control and 98 % of control; (endpoint: median survival time, dose: 30.0 mg/kg/injection, schedule: Q01DX005 (ip), vehicle: Klucel (hydroxypropylcellulose) (HPC)) 98 % of control; (endpoint: median survival time, dose: 40.0 mg/kg/injection, schedule: Q01DX005 (ip), vehicle: Klucel (hydroxypropylcellulose) (HPC)) 119 % of control; (endpoint: median survival time, dose: 60.0 mg/kg/injection, schedule: Q01DX005 (ip), vehicle: Klucel (hydroxypropylcellulose) (HPC)) 110 % of control; (endpoint: median survival time, dose: 120.0 mg/kg/injection, schedule: Q01DX005 (ip), vehicle: Klucel (hydroxypropylcellulose) (HPC)) 122 % of control; (endpoint: median survival time, dose: 200.0 mg/kg/injection, schedule: Q01DX005 (ip), vehicle: Klucel (hydroxypropylcellulose) (HPC)) 188 % of control.
